According to ChEMBL document CHEMBL1128836, “Synthesis of prodrugs and a mutual prodrug of chlorzoxazone and acetaminophen based on a masked benzoxazolone” (Bioorg Med Chem Lett, 1995):
One block for each molecule: values may come before it.

Assays:
[1] = Half life period in rat plasma at 37 degree Celsius temperature (pH 7.4); format: ADME, organism-based
[2] = Half life period in phosphate buffer at pH 7.4; format: ADME; settings: for T1/2: buffer
[3] = species: Homo sapiens; assay: Half life period in human plasma at 37 degree Celsius temperature (pH 7.4)
[4] = species: Homo sapiens; assay: Half life period in human plasma at 25 degree Celsius temperature (pH 7.4)
[5] = Half life period in phosphate buffer at pH 7.4 & 25 degrees C; format: ADME
[6] = Half life period in rat plasma at 25 degree Centigrade temperature (pH 7.4); format: ADME, organism-based

Compound: O=C(Nc1cc(Cl)ccc1O)OCC(Cl)(Cl)Cl
- half-life [1]: 7.5 min
- half-life [2]: 3.2 min
- half-life [3]: 10.1 min

- T1/2 [2]: 0.0517 min
Compound: O=C(Nc1cc(Cl)ccc1O)Oc1cccc(C(F)(F)F)c1

- half-life ([2]; phosphate buffer): 566 min
Compound: CC#CCOC(=O)Nc1cc(Cl)ccc1O

- half-life ([2]; phosphate buffer): 108 min
Compound: C#CCOC(=O)Nc1cc(Cl)ccc1O

- half-life ([2]; phosphate buffer): 0.2 min
Compound: O=C(Nc1cc(Cl)ccc1O)Oc1ccccc1

- half-life [2]: 2.58 min
Compound: O=C(Nc1cc(Cl)ccc1O)OCC(F)(F)F

- T1/2 [2]: 0.0633 min
Compound: O=C(Nc1cc(Cl)ccc1O)Oc1cccc(Cl)c1

- half-life [1]: 53.8 min
- half-life [2]: 42.4 min
- half-life [3]: 105 min
Compound: O=C(Nc1cc(Cl)ccc1O)OCC(Cl)Cl

- half-life ([2]; phosphate buffer): 1310 min
Compound: O=C(Nc1cc(Cl)ccc1O)OCCCl

- half-life ([2]; phosphate buffer): 0.118 min
- half-life [4]: 1.1 min
- half-life [5]: 0.6 min
- half-life [6]: 0.833 min
Compound: CC(=O)Nc1ccc(OC(=O)Nc2cc(Cl)ccc2O)cc1

- half-life ([2]; phosphate buffer): 0.125 min
Compound: CC(=O)Nc1cccc(OC(=O)Nc2cc(Cl)ccc2O)c1
